Where two headings read alike, the source gives them in different places.
Legend:
[1] = Example 15: photographic sensitivity and fog, color format, blue sensitized emulsion T-2; details: for Photographic Sensitivity SWR2B: control=100
Procedure: (§1) The AgBrI tabular silver halide emulsion T-2 from Example 3 was optimally chemically and spectrally sensitized by adding NaSCN, 1.07 mmole of the blue sensitizing dye D-I per mole of silver, Na3 Au(S2 O3)2 ·2H2 O, Na2 S2 O3 ·5H2 O, and a benzothiazolium finish modifier and then subjecting the emulsion to a heat cycle to 65° C. The hydroxybenzene, 2,4-disulfocatechcol (HB3) at a concentration of 13×10^-3 mole/mole Ag was added to the emulsion melt before the start of the chemical sensitization procedure. This chemically sensitized emulsion was then used to prepare the experimental coating variations given in Table X. For all the variations in Table X, the antifoggant and stabilizer tetraazaindene (TAI) was added to the emulsion melt in an amount of 1.75 g/mole Ag before any further addenda. The fragmentable two-electron donors S-3, S-9, S-6, or S-8 were then added to the emulsion melt.
(§2) The melts were prepared for coating by adding additional water, deionized gelatin and coating surfactants. Coatings were prepared by combining the emulsion melts with a melt containing deionized gelatin and an aqueous dispersion of the cyan-forming color coupler CC-1 and coating the resulting mixture on acetate support. The final coatings contained Ag at 0.81 g/m^2, coupler at 1.61 g/m^2, and gelatin at 3.23 g/m^2. The coatings were overcoated with a protective layer containing gelatin at 1.08 g/m^2, coating surfactants, and a bisvinylsulfonylmethyl ether as a gelatin hardening agent. The structure of the color coupler CC-1 is given below: [drawing 120]
(§3) For photographic evaluation, each of the coating strips was exposed for 0.01 sec to a 3000K color temperature tungsten lamp filtered to give an effective color temperature of 5500K and further filtered through a Kodak Wratten filter number 2B, and a step wedge ranging in density from 0 to 4 density units in 0.20 density steps. This exposure gives light absorbed mainly by the blue sensitizing dye. The exposed film strips were developed for 31/4 minutes in Kodak C-41 color developer. SWR2B, relative sensitivity for this filtered exposure, was evaluated at a cyan density of 0.15 units above fog.
(§4) The AgBrl tabular emulsion T-2 as described in Example 3 was sensitized as described in Example 10 except that the hydroxybenzene HB3 was added at the completion of the chemical sensitization procedure. For all the variations in Table XV the antifoggant and stabilizer tetraaazindene (TAI) was added to the emulsion melt in an amount of 1.75 g/mole Ag before any further addenda. The fragmentable electron donor compounds S-19, PMT-3, and PMT-4 were then added to the emulsion melt. The melts were then coated and tested as described in Example 10.

[2] = known acceptors used in flash photolysis; cited from earlier work
[3] = Example 16: photographic sensitivity and fog, color format, blue sensitized emulsion T-2
Procedure: as §1, §2, §3
as §4, with “XVI,” for “XV”, “tetraazaindene (TAI),” for “tetraaazindene (TAI)”, “two-electron” for “electron”, “TU-2” for “S-19, PMT-3,”, “TU-3” for “PMT-4”

[4] = as above; details: control=100
[5] = cited from earlier work

CC(C(=O)O)N(CCC(=O)Nc1cccc(-n2nnnc2S)c1)c1ccc(C=O)cc1 (stereo not shown) [PMT-3]
Fog ([1]; 0.045 x10^-6 mol/mol Ag): 0.07 | Photographic Sensitivity SWR2B ([1]; 0.045 x10^-6 mol/mol Ag): 151 | Fog ([1]; 0.14 x10^-6 mol/mol Ag): 0.08 | Photographic Sensitivity SWR2B ([1]; 0.14 x10^-6 mol/mol Ag): 151 | Fog ([1]; 0.45 x10^-6 mol/mol Ag): 0.07 | Photographic Sensitivity SWR2B ([1]; 0.45 x10^-6 mol/mol Ag): 141

CC(C(=O)O)N(CC(=O)O)c1ccc(S(=O)(=O)N2CCSCC2)cc1 (stereo not shown) [Compound S-19]
Fog ([1]; 4.4 x10^-6 mol/mol Ag): 0.06 | Photographic Sensitivity SWR2B ([1]; 4.4 x10^-6 mol/mol Ag): 115 | Fog ([1]; 8.8 x10^-6 mol/mol Ag): 0.08 | Photographic Sensitivity SWR2B ([1]; 8.8 x10^-6 mol/mol Ag): 112

N#Cc1c2ccccc2c(C#N)c2ccccc12 [DCA, 9,10-dicyanoanthracene]
reduction potential (Ered) [2]: -0.91 V

O=C1C(Cl)=C(Cl)C(=O)C(Cl)=C1Cl [2,3,5,6-tetrachlorobenzoquinone]
reduction potential (Ered) [2]: 0.00 V

N#Cc1ccc2c(C#N)c3cc(C#N)ccc3c(C#N)c2c1 [TCA, tetracyanoanthracene]
reduction potential (Ered) [2]: -0.44 V

O=C1C=CC(=O)C(Cl)=C1 [chlorobenzoquinone]
reduction potential (Ered) [2]: -0.34 V

CC(C(=O)O)N(CCC(=O)N(C)CCN(C)C(=S)N(C)C)c1ccccc1 (stereo not shown) [TU-2]
Fog ([3]; 0.45 x10^-6 mol/molAg): 0.08 | Fog ([3]; 1.4 x10^-6 mol/molAg): 0.09 | Fog ([3]; 4.5 x10^-6 mol/molAg): 0.11 | Photographic Sensitivity SWR3B ([4]; 0.45 x10^-6 mol/molAg): 118 | Photographic Sensitivity SWR3B ([4]; 1.4 x10^-6 mol/molAg): 135 | Photographic Sensitivity SWR3B ([4]; 4.5 x10^-6 mol/molAg): 159

O=C1C=C(Cl)C(=O)C=C1Cl [2,5-dichlorobenzoquinone]
reduction potential (Ered) [2]: -0.18 V

CC(C(=O)O)N(CCC(=O)N(C)CCN(C)C(=S)N(C)C)c1ccc(C=O)cc1 (stereo not shown) [TU-3]
Fog ([3]; 14 x10^-6 mol/molAg): 0.09 | Fog ([3]; 45 x10^-6 mol/molAg): 0.09 | Fog ([3]; 140 x10^-6 mol/molAg): 0.10 | Photographic Sensitivity SWR3B ([4]; 14 x10^-6 mol/molAg): 145 | Photographic Sensitivity SWR3B ([4]; 45 x10^-6 mol/molAg): 155 | Photographic Sensitivity SWR3B ([4]; 140 x10^-6 mol/molAg): 166

CC(C(=O)O)N(CC(=O)O)c1ccc(S(=O)(=O)Nc2cccc(-n3nnnc3S)c2)cc1 (stereo not shown) [PMT-4]
Fog ([1]; 0.14 x10^-6 mol/mol Ag): 0.06 | Photographic Sensitivity SWR2B ([1]; 0.14 x10^-6 mol/mol Ag): 115 | Fog ([1]; 0.45 x10^-6 mol/mol Ag): 0.07 | Photographic Sensitivity SWR2B ([1]; 0.45 x10^-6 mol/mol Ag): 120

N#Cc1ccc2c(C#N)c3ccccc3c(C#N)c2c1 [TriCA, 2,9,10-tricyanoanthracene]
reduction potential (Ered) [2]: -0.67 V

[Cl][Sn][Cl] [SnCl2]
oxidation potential ([5]; SnCl2, CRC Handbook): ~ -0.10 V

B [borohydride]
oxidation potential ([5]; literature): -0.48 V vs SCE
